Results taken from patent publication US6342368B1, “WD-40-derived peptides and uses thereof” (The Board of Trustees of the Leland Stanford Junior …, priority 1994, dated 2002).
Values joined by “and” are separate entries in the source; they are usually repeats but may differ in a detail not shown here. Equal entries are not always repeated. “Also recorded” adds a separate entry of the source.

Key:
Xenopus oocytes = test: PKC-mediated Xenopus oocyte maturation (germinal vesicle breakdown, GVBD) after peptide microinjection; format: cell-based; conditions: for plateau % GVBD (fraction of oocytes reaching maturation) following insulin exposure: peptide 50 μM, 50 nl microinjected, 20 h time course
Experimental: Exposure to insulin induces maturation in Xenopus oocytes via a PKC-dependent pathway (Smith, et al., 1992). The maturation response may be quantified by monitoring the appearance of a white spot in the animal hemisphere of the oocyte, indicating germinal vesicle breakdown (GVBD) and maturation. To assess the effects of RACK1 WD-40-derived peptides on insulin-induced PKC-mediated maturation, 50 nl of a 20 mM NaCl solution containing the indicated peptides [peptide I (SEQ ID NO:1; ●), peptide rVI (SEQ ID NO:7; ▪), or injection solution (□)] (peptides at 50 μM) were microinjected into Xenopus oocytes. […] One hour following the peptide injections, the oocytes were exposed to a solution containing insulin (8.25 μg/ml) for 2 minutes (t=0). 10-15 oocytes were used for each sample.
The data, representative of three independent experiments, are expressed as the percent of oocytes with GVBD following insulin exposure and are plotted as a function of time in FIG. 5.

βPKC = βPKC translocation (soluble vs particulate fraction) in Xenopus oocytes; format: cell-based; conditions: peptide 50 μM microinjected; for insulin (hormone)-induced βPKC translocation: 60 min after insulin; for βPKC distribution / translocation in the absence of insulin treatment: untreated oocytes, 60 min
Experimental: Insulin causes the translocation of βPKC, but not other PKC isozymes, from a cytosolic form to a membrane-associated form, as evidenced by the relative levels of PKC in the soluble vs. the particulate fraction of oocyte homogenate. To assess the effects of RACK1 WD-40-derived peptides on insulin-induced PKC translocation, 50 nl of a 20 mM NaCl solution containing the indicated peptides were microinjected into Xenopus oocytes. The oocytes were then homogenized, and the relative amount of PKC in the soluble and particulate fractions was assayed. The protocol followed was a modification of a method described by Smith, et al. (1992).
Batches of 50 oocytes were microinjected with either peptide rVI (SEQ ID NO:7; 50 μM; lanes 3, 4), peptide I (SEQ ID NO:1; 50 μM, lanes 7, 8) or injection solution (NaCl 20 mM, lanes 1,2 and 5,6). Homogenates from each batch were prepared 60 minutes after microinjection (lanes 1-4) or 60 minutes after addition of insulin (lanes 5-8). The homogenates were centrifuged at 10,000 g for 3 minutes, the upper layer (containing fat and yolk) was removed, and the remainder was frozen at −70° C. Prior to use, the samples were thawed, 200 μl homogenization buffer was added and the samples were centrifuged at 100,000 g for 30 minutes at 4° C. The supernatants (soluble fraction) were removed and concentrated to 20 μl using “CENTRICON” concentrators (Amicon,Beverly, Mass.). The pellets (particulate fractions) were dissolved in 20 μl of homogenization buffer. The samples were resolved on an 8% SDS/PAGE gel and blotted onto nitrocellulose. The amount of PKC in each fraction was determined by Western blot using anti-βPKC antibodies (1:1000 dilution; Seikagaku Kogyo, Tokyo, Japan). Bound primary antibodies were detected by chemiluminescence as described in Example 3, part C.

PKC [1] = test: PKC autophosphorylation; format: biochemical, rat; conditions: peptide 10 μM; absence of PKC activators
Experimental: Rat brain PKC (˜10 nM) was incubated with mild agitation in a final volume of 250 μl of overlay buffer, as in Example 1 either with anti-βPKC pseudosubstrate antibodies (1:10 dilution, Life Technologies, Gaithersburg, Md.) or with the indicated peptide (10 μM). Where indicated, PS (50 μg/ml), DG (0.8 μg/ml) and CaCl2 (1 mM) were also added. The amount of autophosphorylation was determined after 2 hours for the reaction with the anti-pseudosubstrate antibodies, or after 15 minutes for the other samples. 50 μl of a buffer comprised of 20 mM Tris-HCl (pH 7.5), 20 mM MgCl2, 20 μM ATP and 5 μci/ml [γ-^32P]ATP. The mixture was incubated for 15 minutes at room temperature and the reaction was stopped by adding 60 μl sample buffer (see Example 9). The samples were then boiled for 10 minutes, loaded onto a 10% SDS-PAGE mini gel and electrophoresed. The gel was fixed with 50% methanol and 10% acetic acid for 1 hour, and the autophosphorylation of PKC was determined by autoradiography.
The results in FIG. 8 show PKC autophosphorylation in the presence of DG, PS, and calcium (lane 1), in the presence of EGTA (lane 2), in the presence of anti-βPKC pseudosubstrate antibodies (diluted 1:10 in 20 mM Tris-HCl; lane 3), in the presence of peptide rVI (SEQ ID NO:7; 10 μM; lane 4), in the presence of peptide I (SEQ ID NO:1; 10 μM; lane 5), or in the presence of control peptide (SEQ ID NO:9; 10 μM; lane 6).

PKC [2] = test: Histone type IIIs phosphorylation by PKC; format: biochemical; conditions: absence of PS, DG and calcium; peptide 10 μM
Experimental: Histone type IIIs (Sigma Chemical Company, St. Louis, Mo.) was phosphorylated by PKC (˜10 nM) in the absence (lane 1) and presence of peptide rVI (10 μM) (lanes 2 and 3) and in the presence and absence of DG (0.8 μg/ml), PS (50 μg/ml) and CaCl2 (1 mM) (lane 3). The results are expressed as percentage of control that is the amount of Histone phosphorylation by PKC in the presence of DG (0.8 μg/ml), PS (50 μg/ml) and CaCl2 (1 mM). The results are the average ± SEM of two independent experiments. PKC was first incubated with the peptide rVI (10 μM) for 15 minutes in overlay buffer as described above. Histone type IIIs (40 μg/ml) was added in Tris-HCl (20 mM), MgCl2 (20 mM), ATP (20 μM) and ([γ-^32P]ATP (5 μci/ml) with or without PS (50 μg/ml), DG (0.8 μg/ml) and CaCl2 (1 mM). Histone phosphorylation was determined by autoradiography as above.

δ and εPKC isozymes = test: PKC isozyme translocation and degradation in cardiac myocytes; format: cell-based, rat
Experimental: In cardiac myocytes, norepinephrine (NE, 2 μM) causes translocation of δ and εPKC isozymes from the cytosolic to the particulate fraction. […] This peptide-induced translocation was followed by degradation of δ and εPKC isozymes.

[3] = peptide 50 μM microinjected, insulin 8.25 μg/ml
[4] = peptide introduced into cardiac myocytes

Substance | delay to onset of maturation after exposure to insulin (Xenopus oocytes; [3]) | time to reach GVBD plateau after insulin exposure (Xenopus oocytes; [3]) | plateau % GVBD (fraction of oocytes reaching maturation) following insulin exposure (Xenopus oocytes; insulin 8.25 μg/ml) | effect on insulin-induced oocyte maturation (in words) (Xenopus oocytes; peptide microinjected, insulin) | insulin (hormone)-induced βPKC translocation (βPKC) | βPKC distribution / translocation in the absence of insulin treatment (βPKC) | PKC autophosphorylation relative to that with optimal PS, DG and calcium (PKC [1]) | induction of PKC-mediated histone phosphorylation (PKC [2]) | NE-induced translocation of δ and εPKC (δ and εPKC isozymes; norepinephrine 2 μM) | degradation of PKC isozymes (δ and εPKC isozymes; [4]) | translocation / distribution of δ and εPKC isozymes in the absence of hormone stimulation (δ and εPKC isozymes; [4]) | induction of PKC autophosphorylation (in words) (PKC [1])
peptide rVI: eight amino acid peptide identical to a segment of RACK1 WD-40 repeat VI (DIINALCF) | 3 to 4 h | ≤ 5 h | ~100% and 95-100% | potentiates the effects of insulin on oocyte maturation | augments hormone-induced translocation | induced βPKC translocation | over 80% | effective to induce PKC-mediated histone phosphorylation; also recorded: induced histone phosphorylation | – | – | – | –
peptide I: 15-residue peptide homologous to a sequence in the sixth WD-40 repeat of RACK1; PKC antagonist (KGDYEKILVALCGGN) | – | – | 45-50% | – | inhibited hormone-induced translocation; also recorded: inhibited insulin-induced βPKC translocation | did not affect βPKC distribution | – | – | inhibited | nor does it induce PKC degradation; also recorded: did not cause degradation | does not affect PKC distribution | No autophosphorylation; also recorded: Neither peptide I nor control peptide induced PKC autophosphorylation
